From PubChem BioAssay (NCI)
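Protocol summary: plate cells (96-well), add compound at 5 concentrations, incubate 48 h, interpolate endpoints linearly. Abbreviation: GI50, concentration required for 50% inhibition of growth. TGI denotes the concentration required for complete inhibition of growth.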

Experiments:
Assay in all cases: NCI anticancer screen, dose series, 48 h
MDA-MB-435 = system: MDA-MB-435
MDA-N = system: MDA-N
K-562 leukemia = system: K-562 leukemia
MDA-MB-231 breast = system: MDA-MB-231 breast
NCI-H226 lung = system: NCI-H226 lung
HOP-62 NSCLC = system: HOP-62 NSCLC
COLO 205 colon = system: COLO 205 colon
CAKI-1 renal = system: CAKI-1 renal
BT-549 breast = system: BT-549 breast

COC(=O)CCc1c(Cc2ccc[nH]2)[nH]c(C(=O)OCc2ccccc2)c1C
TGI (MDA-MB-435): 32.6 µM
TGI (MDA-N): 34.4 µM
TGI (K-562 leukemia): 58.5 µM
TGI (MDA-MB-231 breast): 28.9 µM
TGI (NCI-H226 lung): 35.4 µM
TGI (HOP-62 NSCLC): 39.9 µM
TGI (COLO 205 colon): 32.9 µM
TGI (CAKI-1 renal): 64.7 µM

CC(=O)NC1=C(NCCCl)C(=O)c2ccccc2C1=O
TGI (BT-549 breast): > 100 µM
TGI (MDA-MB-435): 31.1 µM
TGI (MDA-N): 38.3 µM
TGI (K-562 leukemia): > 100 µM
TGI (MDA-MB-231 breast): > 100 µM
TGI (NCI-H226 lung): > 100 µM
TGI (HOP-62 NSCLC): > 100 µM
TGI (COLO 205 colon): > 100 µM

Cc1ccc(-c2nnc(CCCCCCCCc3nnc(-c4ccc(C)cc4O)n3N)n2N)c(O)c1
TGI (MDA-MB-435): > 100 µM
TGI (MDA-N): > 100 µM
TGI (MDA-MB-231 breast): > 100 µM
TGI (COLO 205 colon): > 100 µM
TGI (CAKI-1 renal): > 100 µM

Cc1ccnc2nc(N)ccc12
TGI (BT-549 breast): > 100 µM
TGI (MDA-MB-435): > 100 µM
TGI (MDA-N): > 100 µM
TGI (K-562 leukemia): > 100 µM
TGI (MDA-MB-231 breast): > 100 µM
TGI (NCI-H226 lung): > 100 µM
TGI (COLO 205 colon): > 100 µM
TGI (CAKI-1 renal): > 100 µM

COc1ccc(/C=C/C(=O)c2ccc(-n3cc(CN4CCN(c5cc6c(cc5F)c(=O)c(C(=O)O)cn6C5CC5)CC4)nn3)cc2)cc1OC
GI50 (MDA-MB-435): 1.49 µM
TGI (MDA-MB-435): 4.67 µM
GI50 (K-562 leukemia): 0.977 µM
TGI (K-562 leukemia): > 100 µM
GI50 (MDA-MB-231 breast): 3.2 µM
TGI (MDA-MB-231 breast): > 100 µM
GI50 (NCI-H226 lung): 2.39 µM
TGI (NCI-H226 lung): 6.63 µM
GI50 (HOP-62 NSCLC): 2.49 µM
TGI (HOP-62 NSCLC): > 100 µM
GI50 (COLO 205 colon): 5.09 µM
TGI (COLO 205 colon): > 100 µM
GI50 (CAKI-1 renal): 5.1 µM
TGI (CAKI-1 renal): 19 µM

CC(=O)OC1C2CCC3C(C)(O)C4CC(O)C(C)(C)C4(O)C(O)CC13CC2(C)O (stereo not given)
TGI (BT-549 breast): > 100 µM
TGI (MDA-N): > 100 µM
TGI (K-562 leukemia): > 100 µM
TGI (MDA-MB-231 breast): > 100 µM
TGI (NCI-H226 lung): > 100 µM
TGI (HOP-62 NSCLC): > 100 µM
TGI (COLO 205 colon): > 100 µM
TGI (CAKI-1 renal): > 100 µM

Cc1nc2n(c1/C=C1/C(=O)Nc3ccccc31)CCS2
TGI (BT-549 breast): > 100 µM
TGI (MDA-MB-435): 36.1 µM
TGI (MDA-N): 44.4 µM
TGI (K-562 leukemia): > 100 µM
TGI (MDA-MB-231 breast): > 100 µM
TGI (HOP-62 NSCLC): > 100 µM
TGI (COLO 205 colon): 47.6 µM
TGI (CAKI-1 renal): > 100 µM

CC12CCCCC1=[N+]([O-])C(C)(C)N2O (stereo not given)
TGI (MDA-MB-435): > 100 µM
TGI (MDA-N): > 100 µM
TGI (MDA-MB-231 breast): > 100 µM
TGI (NCI-H226 lung): > 100 µM
TGI (HOP-62 NSCLC): > 100 µM
TGI (COLO 205 colon): > 100 µM
TGI (CAKI-1 renal): > 100 µM

CC1(C)C(CCO)CC1n1ccc(=O)[nH]c1=O (stereo not given)
TGI (MDA-MB-435): > 100 µM
TGI (MDA-N): > 100 µM
TGI (K-562 leukemia): 72.4 µM
TGI (MDA-MB-231 breast): > 100 µM
TGI (NCI-H226 lung): > 100 µM
TGI (HOP-62 NSCLC): > 100 µM
TGI (CAKI-1 renal): > 100 µM

C=C(C)C1CC/C(C)=C/CC[C@]2(C)O[C@@H]2CCC2=CC1OC2=O (stereo not given in full)
GI50 (MDA-MB-435): 49.4 µM
TGI (MDA-MB-435): > 100 µM
GI50 (K-562 leukemia): 14.6 µM
TGI (K-562 leukemia): 27.7 µM
GI50 (NCI-H226 lung): > 100 µM
TGI (NCI-H226 lung): > 100 µM
GI50 (HOP-62 NSCLC): > 100 µM
TGI (HOP-62 NSCLC): > 100 µM
GI50 (COLO 205 colon): > 100 µM
TGI (COLO 205 colon): > 100 µM
GI50 (CAKI-1 renal): 19 µM
TGI (CAKI-1 renal): 49.1 µM

Cc1ccc(NC2=NCCO2)c2c1CCC2
TGI (MDA-MB-435): 46.2 µM
TGI (MDA-N): 38.5 µM
TGI (K-562 leukemia): > 100 µM
TGI (MDA-MB-231 breast): 69.4 µM
TGI (NCI-H226 lung): > 100 µM
TGI (HOP-62 NSCLC): > 100 µM
TGI (COLO 205 colon): 83.6 µM
TGI (CAKI-1 renal): > 100 µM

Cc1ccc(-n2cc(-c3ccc(Cl)cc3)c3c(NN)ncnc32)cc1
TGI (MDA-MB-435): 29.4 µM
TGI (MDA-N): 63.2 µM
TGI (K-562 leukemia): 12 µM
TGI (MDA-MB-231 breast): > 100 µM
TGI (NCI-H226 lung): 7.96 µM
TGI (HOP-62 NSCLC): 22.6 µM
TGI (COLO 205 colon): 11.2 µM
TGI (CAKI-1 renal): 8.73 µM

CC(=O)OC12c3ccccc3C(c3ccccc31)C1C(=O)N(c3ccccn3)C(=O)C12 (stereo not given)
TGI (BT-549 breast): > 100 µM
TGI (K-562 leukemia): > 100 µM
TGI (MDA-MB-231 breast): > 100 µM
TGI (NCI-H226 lung): > 100 µM
TGI (HOP-62 NSCLC): > 100 µM
TGI (COLO 205 colon): > 100 µM
TGI (CAKI-1 renal): > 100 µM

CN(C(=O)c1ccc2c(c1)sc1c(=O)n(C)c3ccccc3c12)c1ccccc1
TGI (BT-549 breast): > 100 µM
TGI (MDA-MB-435): > 100 µM
TGI (MDA-N): > 100 µM
TGI (K-562 leukemia): > 100 µM
TGI (MDA-MB-231 breast): > 100 µM
TGI (NCI-H226 lung): > 100 µM
TGI (COLO 205 colon): > 100 µM
TGI (CAKI-1 renal): > 100 µM

O=C1CC(C(CC(=O)c2ccccc2)c2ccccc2)C(=O)c2ccccc2N1 (stereo not given)
TGI (BT-549 breast): > 100 µM
TGI (MDA-MB-435): > 100 µM
TGI (MDA-N): > 100 µM
TGI (K-562 leukemia): > 100 µM
TGI (MDA-MB-231 breast): > 100 µM
TGI (NCI-H226 lung): 77.8 µM
TGI (HOP-62 NSCLC): > 100 µM
TGI (COLO 205 colon): > 100 µM

COC(=O)c1c(CC(Cc2ccc3c(c2)CCCC3)C(=O)OC)ccc2c1CCCC2 (stereo not given)
TGI (BT-549 breast): > 100 µM
TGI (MDA-MB-435): > 100 µM
TGI (MDA-N): > 100 µM
TGI (K-562 leukemia): > 100 µM
TGI (MDA-MB-231 breast): > 100 µM
TGI (HOP-62 NSCLC): > 100 µM
TGI (COLO 205 colon): > 100 µM
TGI (CAKI-1 renal): > 100 µM

Cc1nnc2n(c1=O)CCN2C
TGI (BT-549 breast): > 100 µM
TGI (MDA-MB-435): > 100 µM
TGI (MDA-N): > 100 µM
TGI (K-562 leukemia): > 100 µM
TGI (MDA-MB-231 breast): > 100 µM
TGI (NCI-H226 lung): > 100 µM
TGI (HOP-62 NSCLC): > 100 µM
TGI (COLO 205 colon): > 100 µM
